US10196386B2, “Compounds having muscarinic receptor antagonist and beta2 adrenergic receptor agonist activity” (priority 2016, dated 2019)

Experiments:
Human β2 adrenoceptor = molecular target: T1, Human β2 adrenoceptor (Homo sapiens, UniProt P07550); assay: β2 adrenoceptor radioligand binding assay
T1 construct: purchased Perkin Elmer
Outline: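 Human β2 receptor membranes incubated 1 h at room temperature with 0.3 nM [125I]cyanopindolol and compound in pH 7.4 HEPES buffer (0.5% DMSO); 2 μM s-propranolol defined non-specific binding. Bound label counted after filtration; IC50 from competition curves, converted to Ki via Cheng–Prusoff.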

Human M3 receptor = molecular target: T2, Human M3 receptor (Homo sapiens, UniProt P20309); assay: biochemical; type: binding; details: read-out: M3 Range
T2 construct: purchased Perkin Elmer
T2 sequence (P20309 whole entry): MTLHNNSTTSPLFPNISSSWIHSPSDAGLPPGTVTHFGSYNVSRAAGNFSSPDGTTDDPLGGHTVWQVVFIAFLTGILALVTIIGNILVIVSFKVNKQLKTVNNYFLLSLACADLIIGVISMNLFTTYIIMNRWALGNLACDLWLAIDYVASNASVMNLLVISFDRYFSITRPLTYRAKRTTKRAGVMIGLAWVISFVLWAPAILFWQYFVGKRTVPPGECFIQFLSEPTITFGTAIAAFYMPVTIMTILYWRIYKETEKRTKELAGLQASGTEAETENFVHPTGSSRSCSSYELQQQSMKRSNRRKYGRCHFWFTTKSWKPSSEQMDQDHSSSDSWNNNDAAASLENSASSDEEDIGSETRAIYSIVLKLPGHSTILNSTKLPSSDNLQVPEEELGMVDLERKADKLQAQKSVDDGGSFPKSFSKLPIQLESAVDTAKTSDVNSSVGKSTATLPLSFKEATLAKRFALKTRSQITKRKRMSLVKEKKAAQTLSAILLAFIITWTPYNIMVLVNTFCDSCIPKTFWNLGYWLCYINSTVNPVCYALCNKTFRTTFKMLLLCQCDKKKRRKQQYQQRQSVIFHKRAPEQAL

T1 sequence (P07550 whole entry): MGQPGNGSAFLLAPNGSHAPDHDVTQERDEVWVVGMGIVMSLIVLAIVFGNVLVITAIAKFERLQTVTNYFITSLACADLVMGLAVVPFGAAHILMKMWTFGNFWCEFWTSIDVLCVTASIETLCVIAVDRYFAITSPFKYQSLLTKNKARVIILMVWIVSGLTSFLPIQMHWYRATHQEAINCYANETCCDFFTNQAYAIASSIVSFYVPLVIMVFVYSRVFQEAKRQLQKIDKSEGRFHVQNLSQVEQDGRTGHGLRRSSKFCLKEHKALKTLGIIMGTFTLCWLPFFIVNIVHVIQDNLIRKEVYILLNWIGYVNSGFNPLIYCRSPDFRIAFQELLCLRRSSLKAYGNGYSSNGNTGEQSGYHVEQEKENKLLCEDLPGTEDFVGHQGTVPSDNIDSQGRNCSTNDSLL

For `COc1cc(C(=O)NCc2ccc(-c3cccc([C@](O)(C(=O)OCC4(C)CCN(Cc5ccccc5)CC4)c4ccccc4)c3)s2)c(Cl)cc1CNC[C@H](O)c1ccc(O)c2[nH]c(=O)ccc12` [Compound 11, (1-Benzyl-4-methylpiperidin-4-yl)methyl (S)-2-(3-(5-((2-chloro-4-((((R)-2-hydroxy-2-(8-hydroxy-2-oxo-1,2-dihydroquinolin-5-yl)ethyl)amino)methyl)-5-methoxybenzamido)methyl)thiophen-2-yl)phenyl)-2-hydroxy-2-phenylacetate], the IC50 (Human β2 adrenoceptor) was less than 0.3 nM and the IC50 (Human M3 receptor) was 0.3 to 3 nM.
`O=C1c2ccc(CNC[C@H](O)c3ccc(O)c4[nH]c(=O)ccc34)cc2C(=O)N1Cc1ccc(-c2cccc([C@](O)(C(=O)OCC3CCN(Cc4ccccc4)CC3)c3ccccc3)c2)s1` [Compound 12, (1-Benzylpiperidin-4-yl)methyl (S)-2-hydroxy-2-(3-(5-((5-((((R)-2-hydroxy-2-(8-hydroxy-2-oxo-1,2-dihydroquinolin-5-yl)ethyl)amino)methyl)-1,3-dioxoisoindolin-2-yl)methyl)thiophen-2-yl)phenyl)-2-phenylacetate] was tested, and the IC50 (Human β2 adrenoceptor) was 0.3 to 3 nM and the IC50 (Human M3 receptor) was 0.3 to 3 nM.
In the case of `O=C(NCC(=O)N1CCC(c2cccc([C@](O)(C(=O)OCC3CCN(Cc4ccccc4)CC3)c3ccccc3)c2)CC1)c1ccc(CCNC[C@H](O)c2ccc(O)c3[nH]c(=O)ccc23)cc1` [Compound 13, (1-Benzylpiperidin-4-yl)methyl (S)-2-hydroxy-2-(3-(1-((4-(2-(((R)-2-hydroxy-2-(8-hydroxy-2-oxo-1,2-dihydroquinolin-5-yl)ethyl)amino)ethyl)benzoyl)-glycyl)piperidin-4-yl)phenyl)-2-phenylacetate], the IC50 (Human β2 adrenoceptor) is reported as less than 0.3 nM and the IC50 (Human M3 receptor) is reported as 0.3 to 3 nM.
Molecule `Cn1nc(C(=O)NCc2ccc(CNC[C@H](O)c3ccc(O)c4[nH]c(=O)ccc34)cc2)cc1-c1cccc([C@](O)(C(=O)OCC2CCN(Cc3ccccc3)CC2)c2ccccc2)c1` [Compound 14, (1-Benzylpiperidin-4-yl)methyl (S)-2-hydroxy-2-(3-(3-((4-((((R)-2-hydroxy-2-(8-hydroxy-2-oxo-1,2-dihydroquinolin-5-yl)ethyl)amino)methyl)-benzyl)carbamoyl)-1-methyl-1H-pyrazol-5-yl)phenyl)-2-phenylacetate] has an IC50 (Human β2 adrenoceptor) of 0.3 to 3 nM and an IC50 (Human M3 receptor) of 0.3 to 3 nM.
In the case of `O=C(NCc1ccc(-c2ccc([C@](O)(C(=O)OCC3CCN(Cc4ccccc4)CC3)c3ccccc3)cc2)s1)c1ccc(CNC[C@H](O)c2ccc(O)c3[nH]c(=O)ccc23)cc1` [Compound 15, (1-benzylpiperidin-4-yl)methyl (S)-2-hydroxy-2-(4-(5-((4-((((R)-2-hydroxy-2-(8-hydroxy-2-oxo-1,2-dihydroquinolin-5-yl)ethyl)amino)methyl)benzamido)methyl)-thiophen-2-yl)phenyl)-2-phenylacetate×2 HCOOH], the IC50 (Human β2 adrenoceptor) is reported as less than 0.3 nM and the IC50 (Human M3 receptor) is reported as 0.3 to 3 nM.
`COc1cc(C(=O)NCc2ccc(-c3ccc([C@](O)(C(=O)OCC4CCN(Cc5ccccc5)CC4)c4ccccc4)cc3)s2)ccc1CNC[C@H](O)c1ccc(O)c2[nH]c(=O)ccc12` [Compound 15A, (1-benzylpiperidin-4-yl)methyl (S)-2-hydroxy-2-(4-(5-((4-((((R)-2-hydroxy-2-(8-hydroxy-2-oxo-1,2-dihydroquinolin-5-yl)ethyl)amino)methyl)-3-methoxybenzamido)methyl)thiophen-2-yl)phenyl)-2-phenylacetate] showed an IC50 (Human β2 adrenoceptor) of less than 0.3 nM and an IC50 (Human M3 receptor) of 0.3 to 3 nM.
In the case of `O=C(NCc1cc(-c2ccc([C@](O)(C(=O)OCC3CCN(Cc4ccccc4)CC3)c3ccccc3)cc2)cs1)c1ccc(CNC[C@H](O)c2ccc(O)c3[nH]c(=O)ccc23)cc1` [Compound 15B, (1-benzylpiperidin-4-yl)methyl (S)-2-hydroxy-2-(4-(5-((4-((((R)-2-hydroxy-2-(8-hydroxy-2-oxo-1,2-dihydroquinolin-5-yl)ethyl)amino)methyl)-benzamido)methyl)thiophen-3-yl)phenyl)-2-phenylacetate], the IC50 (Human β2 adrenoceptor) is reported as 0.3 to 3 nM and the IC50 (Human M3 receptor) is reported as greater than 3 nM.
`O=C(NCc1cnc(-c2ccc([C@](O)(C(=O)OCC3CCN(Cc4ccccc4)CC3)c3ccccc3)cc2)s1)c1ccc(CNC[C@H](O)c2ccc(O)c3[nH]c(=O)ccc23)cc1` [Compound 15C, (1-benzylpiperidin-4-yl)methyl (S)-2-hydroxy-2-(4-(5-((4-((((R)-2-hydroxy-2-(8-hydroxy-2-oxo-1,2-dihydroquinolin-5-yl)ethyl)amino)methyl)-benzamido)methyl)thiazol-2-yl)phenyl)-2-phenylacetate] gave an IC50 (Human β2 adrenoceptor) of less than 0.3 nM and an IC50 (Human M3 receptor) of 0.3 to 3 nM.
In the case of `O=C(NCc1ccc(-c2ccc([C@](O)(C(=O)OCC3CCN(Cc4ccccc4)CC3)c3ccccc3)cc2)cn1)c1ccc(CNC[C@H](O)c2ccc(O)c3[nH]c(=O)ccc23)cc1` [Compound 15D, (1-benzylpiperidin-4-yl)methyl (S)-2-hydroxy-2-(4-(6-((4-((((R)-2-hydroxy-2-(8-hydroxy-2-oxo-1,2-dihydroquinolin-5-yl)ethyl)amino)methyl)-benzamido)methyl)pyridin-3-yl)phenyl)-2-phenylacetate], the IC50 (Human β2 adrenoceptor) is reported as less than 0.3 nM and the IC50 (Human M3 receptor) is reported as 0.3 to 3 nM.
In the case of `O=C(c1ccc(CNC[C@H](O)c2ccc(O)c3[nH]c(=O)ccc23)cc1)N1CC=C(c2ccc([C@](O)(C(=O)OCC3CCN(Cc4ccccc4)CC3)c3ccccc3)cc2)CC1` [Compound 15E, (1-benzylpiperidin-4-yl)methyl (S)-2-hydroxy-2-(4-(1-(4-((((R)-2-hydroxy-2-(8-hydroxy-2-oxo-1,2-dihydroquinolin-5-yl)ethyl)amino)methyl)benzoyl)-1,2,3,6-tetrahydropyridin-4-yl)phenyl)-2-phenylacetate], the IC50 (Human β2 adrenoceptor) is reported as less than 0.3 nM and the IC50 (Human M3 receptor) is reported as 0.3 to 3 nM.
Molecule `COc1cc(C(=O)NCc2cc(-c3ccc([C@](O)(C(=O)OCC4CCN(Cc5ccccc5)CC4)c4ccccc4)cc3)cs2)ccc1CNC[C@H](O)c1ccc(O)c2[nH]c(=O)ccc12` [Compound 15F, (1-benzylpiperidin-4-yl)methyl (S)-2-hydroxy-2-(4-(5-((4-((((R)-2-hydroxy-2-(8-hydroxy-2-oxo-1,2-dihydroquinolin-5-yl)ethyl)amino)methyl)-3-methoxybenzamido)methyl)thiophen-3-yl)phenyl)-2-phenylacetate] has an IC50 (Human β2 adrenoceptor) of less than 0.3 nM and an IC50 (Human M3 receptor) of 0.3 to 3 nM.
`O=C(NCc1ccc(CCNC[C@H](O)c2ccc(O)c3[nH]c(=O)ccc23)cc1)c1ccc(-c2ccc([C@](O)(C(=O)OCC3CCN(Cc4ccccc4)CC3)c3ccccc3)cc2)s1` [Compound 16, (1-benzylpiperidin-4-yl)methyl (S)-2-hydroxy-2-(4-(5-((4-(2-(((R)-2-hydroxy-2-(8-hydroxy-2-oxo-1,2-dihydroquinolin-5-yl)ethyl)amino)ethyl)benzyl)-carbamoyl)thiophen-2-yl)phenyl)-2-phenylacetate×2 HCOOH] gave an IC50 (Human β2 adrenoceptor) of 0.3 to 3 nM and an IC50 (Human M3 receptor) greater than 3 nM.
